O=C(O)CNCc1ccccc1
solubility (mole fraction)
Details	283.15 K	288.15 K	293.15 K	298.15 K	303.15 K	313.15 K	323.15 K
in 1,4-dioxane	3.3e-05	–	5.5e-05	–	8.4e-05	0.00015	0.000211
in acetone	7.1e-05	–	9.4e-05	–	0.000133	0.000165	0.00024
in acetonitrile	5e-06	–	1.1e-05	–	1.7e-05	2.8e-05	4e-05
in dichloromethane	9e-06	2.1e-05	3.4e-05	4.2e-05	5.7e-05	–	–
in ethanol	0.000222	–	0.000326	–	0.00043	0.000526	0.000709
in ethyl acetate	1.1e-05	–	3.3e-05	–	6.7e-05	0.000102	0.000173
in isopropanol	6e-05	–	8e-05	–	9.6e-05	0.00012	0.000173
in methanol	0.00217	–	0.00269	–	0.00335	0.00416	0.0053
in n-butanol	0.000166	–	0.000203	–	0.000262	0.000338	0.000397
in n-propanol	0.000214	–	0.000266	–	0.000306	0.00037	0.000456
in water	0.00909	–	0.0113	–	0.014	0.0169	0.0214

Source: BigSolDB 2.1
